Reference: patent publication US9492468B2, “Methods and compositions for treatment of acute heart failure” (PERICOR THERAPEUTICS, INC., priority 2008, dated 2016)
Counter-ions that a name gives are not always drawn.

Key:
[1] = test system: dogs with advanced heart failure; assay: GP-531 infusion simultaneously with 8-SPT (non-selective adenosine antagonist); type: in vivo, dog; details: for Cardiac output (CO) / Heart rate (HR) / LV end-diastolic pressure (LVEDP) / LV end-diastolic volume (EDV) / LV end-systolic volume (ESV) / Mean aortic pressure (mAoP) / Stroke volume (SV) / Systemic vascular resistance (SVR): GP-531 infusion simultaneously with 8-SPT infusion
Procedure: At the completion of the 6 hour constant infusion study, a secondary study was performed in 3 heart failure dogs to assess the effects of GP-531 in the presence of the non-selective adenosine antagonist 8-p-sulfophenyl theophylline (8-SPT). After baseline hemodynamic and ventriculographic measurements, 8-SPT was administered as 10 mg/kg intravenous bolus followed by 10 mg/kg/hr constant infusion for 3 hours. Infusion of GP-531 tartrate was initiated simultaneously with infusion of 8-SPT at a dose of 10 μg/kg/hr and also maintained for 3 hours. Hemodynamic and ventriculographic measurements were made at 1, 2 and 3 hours.
All hemodynamic measurements were made during left and right heart catheterizations in anesthetized dogs at each specified study time point. Heart rate (HR), mean aortic pressure (mAoP), LV end-diastolic pressure (LVEDP), stroke volume (SV), cardiac output (CO) and systemic vascular resistance (SVR) were measured at each study time point. Left ventriculograms were performed during cardiac catheterization after completion of the hemodynamic measurements. Left ventriculograms were obtained with the dog placed on its right side and digitally recorded during the injection of 20 ml of contrast material (RENO-M-60 Squibb, Princeton, N.J.). Correction for image magnification was made using a radiopaque grid placed at the level of the LV. LV end-systolic (ESV) and end-diastolic volumes (EDV) were calculated from angiographic silhouettes using the area length method (Dodge H T, et al, Am J Cardiol. 1966; 18:10-24.). Premature beats and post-extra-systolic beats were excluded from the analysis. LV ejection fraction (EF) was calculated as the ratio of the difference of end-diastolic and end-systolic volumes to end-diastolic volume times 100, as described above.
Within group hemodynamic and angiographic data were analyzed using repeated measures analysis of variance (ANOVA) with alpha set at 0.05. If the overall ANOVA was significant, then pairwise comparisons between baseline and drug or placebo dose/time point were performed using the Student-Newman-Keuls test. For this test, a p-value of <0.05 was considered significant. All data are reported as the mean±SEM.

TnI = assay: Plasma troponin I (sandwich ELISA), dose escalation study; type: in vivo, dog
Procedure: Eight heart failure dogs described in Example 1 were used. Seven of 8 dogs underwent two studies, one with active drug GP-531 tartrate and one with vehicle (placebo) and 1 of 8 dogs underwent only one active drug GP-531 study. The order of active drug and placebo was randomized and performed about one week apart. In 6 of 8 dogs, after baseline hemodynamic, and ventriculographic measurements, vehicle was administered as a continuous intravenous infusion for one hour. At the end of one hour, the active drug GP-531 tartrate was administered in 3 escalating dose of continuous intravenous infusion with each dose maintained for one hour. At the end of the last drug dose, infusion was stopped and a washout period of one hour was instituted. The same infusion rates and times between doses were used when vehicle studies were performed. At the end of each hour, hemodynamic and angiographic measurements were made. Venous blood samples were obtained at baseline and at one hour after each dose. Blood samples (at least 10 mL) were centrifuged at 3000 rpm for 10 minutes and plasma withdrawn and placed in cryostorage tubes and stored upright at −20° C. for future use. In 2 of 8 dogs, active drug was administered as bolus followed by a constant infusion for 3 hours as noted below.
Plasma biomarkers were measured in Groups I and II. Troponin I (TnI) was determined in plasma based on the principle of the double antibody sandwich enzyme-linked immunosorbent assay (ELISA) (Hirano, T., et al., Immunol Today 1990, 11:443-449) and n-terminal brain natriuretic peptide (NT-pro-BNP) based on competitive ELISA (Bonow, R. O. Circulation 1996, 93:1946-1950). Both biomarkers were assayed using commercially available assay kits. Kits for NT proBNP and TnI were purchased from ALPCO Diagnostics, Salem, N.H. Using standard curves and software, the concentration of each biomarker was expressed as ng/ml for TnI and fmol/ml for NT-proBNP.

[2] = HF dogs n=3, administered simultaneously with 8-SPT, 3 h

## NC(=O)c1ncn(C2OC(CNCc3ccccc3)C(O)C2O)c1N (centres unmarked) [GP-531 tartrate]
[1]; [2]
  Effect on CO: no effects
  Effect on EDV: no effects
  Effect on EF: no effects
  Effect on ESV: no effects
  Effect on HR: no effects
  Effect on LVEDP: no effects
  Effect on SV: no effects
  Effect on SVR: no effects
  Effect on mAoP: no effects
TnI; Group I HF dogs, all doses (30, 100, 300 μg/kg/min), vs baseline
  Effect on plasma TnI: decreased significantly
TnI; Group II HF dogs, 30 μg/kg/min, not statistically significant
  Effect on plasma TnI: tended to decrease at the highest dose

## NC(=O)c1ncn(C2OC(CNCc3ccccc3)C(O)C2O)c1N [GP-531, 5-amino-1-β-D-(5-benzylamino-5-deoxy-1-β-D-ribofuranosyl)imidazole-4 carboxamide]
[1]; HF dogs n=3, 1 h
  Cardiac output (CO): 1.51 ± 0.08 L/min
  Heart rate (HR): 80 ± 4 beats/min
  LV end-diastolic pressure (LVEDP): 16 ± 0.0 mmHg
  LV end-diastolic volume (EDV): 69 ± 3 mL
  LV end-systolic volume (ESV): 50 ± 3 mL
  Mean aortic pressure (mAoP): 97 ± 9 mmHg
  Stroke volume (SV): 19 ± 0.6 rnl
  Systemic vascular resistance (SVR): 5089 ± 203 dynes-sec-cm^−5
[1]; HF dogs n=3, 2 h
  Cardiac output (CO): 1.57 ± 0.15 L/min
  Heart rate (HR): 81 ± 5 beats/min
  LV end-diastolic pressure (LVEDP): 16 ± 0.3 mmHg
  LV end-diastolic volume (EDV): 69 ± 3 mL
  LV end-systolic volume (ESV): 49 ± 2 mL
  Mean aortic pressure (mAoP): 82 ± 6 mmHg
  Stroke volume (SV): 19 ± 0.9 rnl
  Systemic vascular resistance (SVR): 4191 ± 84 dynes-sec-cm^−5
[1]; HF dogs n=3, 3 h
  Cardiac output (CO): 1.53 ± 0.05 L/min
  Heart rate (HR): 81 ± 6 beats/min
  LV end-diastolic pressure (LVEDP): 16 ± 0.3 mmHg
  LV end-diastolic volume (EDV): 68 ± 3 mL
  LV end-systolic volume (ESV): 49 ± 3 mL
  Mean aortic pressure (mAoP): 82 ± 7 mmHg
  Stroke volume (SV): 19 ± 1.0 rnl
  Systemic vascular resistance (SVR): 4297 ± 253 dynes-sec-cm^−5
[1]; HF dogs, administered in conjunction with 8-SPT, non-selective adenosine receptor antagonist
  Benefits on LV function in conjunction with 8-SPT: abolished
TnI; Group I HF dogs n=3, 1 h washout after 30/100/300 μg/kg/min
  Plasma TnI: 0.36 ± 0.03 pg/mL
TnI; Group I HF dogs n=3, iv 30 μg/kg/min, 1 h
  Plasma TnI: 0.17 ± 0.03 pg/mL
TnI; Group I HF dogs n=3, iv 100 μg/kg/min, 1 h
  Plasma TnI: 0.13 ± 0.02 pg/mL
TnI; Group I HF dogs n=3, iv 300 μg/kg/min, 1 h
  Plasma TnI: 0.15 ± 0.05 pg/mL
TnI; Group II HF dogs n=3, 1 h washout after 3/10/30 μg/kg/min
  Plasma TnI: 0.31 ± 0.05 pg/mL
TnI; Group II HF dogs n=3, iv 3 μg/kg/min, 1 h
  Plasma TnI: 0.51 ± 0.05 pg/mL
TnI; Group II HF dogs n=3, iv 10 μg/kg/min, 1 h
  Plasma TnI: 0.50 ± 0.15 pg/mL
TnI; Group II HF dogs n=3, iv 30 μg/kg/min, 1 h
  Plasma TnI: 0.19 ± 0.05 pg/mL
